According to patent publication US20060258598A1, “Alpha-keto carbonyl calpain inhibitors” (priority 2003, published 2006):

Assays:
mdx mouse = experiment: Longterm treatment of mdx mice (model for Duchenne Muscular Dystrophy); assay type: in vivo; conditions: 10 mg/kg/day i.p., 4 weeks, vs vehicle mdx mice
Procedure: The mdx mouse is a well established animal model for Duchenne Muscular Dystrophy (Bulfield G., Siller W. G., Wight P. A., Moore K. J., X chromosome-linked muscular dystrophy (mdx) in the mouse, Proc. Natl. Acad. Sci. USA., 1984, 81(4), 1189-1192). Selected compounds were tested in longterm treatments of mdx mice, according to the procedures described below.
Mouse strains: C57BL/10scsn and C57BL/10scsn mdx mouse strains were purchased at The Jackson Laboratory (ME, USA) and bred inhouse. Mouse males were sacrificed at the age of 3 or 7 weeks by CO2 asphyxiation.
Treatment: Compounds were dissolved in 50% PEG, 50% saline solution and applied by i.p. injection.
Histology: Tibialis anterior (TA) and diaphragm (Dia) muscles were collected and mounted on cork supports using gum tragacanth (Sigma-Aldrich, Germany). The samples were snap-frozen in melting isopentane and stored at −80° C. 12 μm thick cryosections of the mid-belly region of muscles were prepared. For staining, sections were air dried and fixed with 4% PFA in PBS for 5 minutes, washed 3 times with PBS and incubated over night at 4° C. in PBS containing 2 μg/ml Alexa Fluor™ 488 conjugated wheat-germ agglutinin (WGA-Alexa, Molecular Probes, Eugen, Oreg., USA) to stain membrane-bound and extracellular epitopes and 1 μg/ml 4′,6-diamidino-2-phenylindole (DAPI; Molecular Probes) to stain nuclei.
Image acquisition and analysis: Fluorescence microscopy images of both labels were acquired using a digital camera (ColorView II, Soft Imaging System, Munster, Germany) coupled to a fluorescence microscope (Vanox S, Olympus, Tokyo, Japan). Combination of these two stainings to a composite image, assembling of several images to a complete image of the entire muscle cross-section and further semi-automated analysis was performed using the image analysis program AnalySIS (Soft Imaging System). Image analysis of 1200-2900 muscle fibers in each section was performed in three steps: 1) determination of the muscle fiber boundaries, 2) determination of the muscle fiber size, and 3) determination of the percentage of muscle fibers containing centralized nuclei. Six different geometrical parameters were tested for the determination of the muscle fiber size: (a) the “minimal feret” (the minimum distance of parallel tangents at opposing borders of the muscle fiber), (b) the “area”, (c) the “minimal inner diameter” (the minimum diameter through the center of the muscle fiber), (d) the “minimal diameter” (the minimum diameter of a muscle fiber for angles in the range 0° through 179° with step width 1°, (e) the “minimal outer diameter” (the minimum diameter through the muscle fiber from outer border to outer border), and (f) the “perimeter”. The variance coefficient of the muscle fiber size is defined as follows: variance coefficient=(standard deviation of the muscle fiber size/mean of the muscle fiber size of the section)*1000. For statistical analysis of different variance coefficient values Mann-Whitney U test was used.
Selected Examples of the present invention were active in the mdx mouse model at 10 mg/kg/day, using 3 week old mice and a treatment period of 4 weeks (N=5−10).

human μ-calpain = molecular target: T1, human μ-calpain (Homo sapiens, UniProt P07384); experiment: Enzymatic calpain inhibition assay; assay type: biochemical; conditions: substrate Suc-Leu-Tyr-AMC, read-out: Calp I IC50
T1 construct: purchased Calbiochem
T1 sequence (P07384 1-714): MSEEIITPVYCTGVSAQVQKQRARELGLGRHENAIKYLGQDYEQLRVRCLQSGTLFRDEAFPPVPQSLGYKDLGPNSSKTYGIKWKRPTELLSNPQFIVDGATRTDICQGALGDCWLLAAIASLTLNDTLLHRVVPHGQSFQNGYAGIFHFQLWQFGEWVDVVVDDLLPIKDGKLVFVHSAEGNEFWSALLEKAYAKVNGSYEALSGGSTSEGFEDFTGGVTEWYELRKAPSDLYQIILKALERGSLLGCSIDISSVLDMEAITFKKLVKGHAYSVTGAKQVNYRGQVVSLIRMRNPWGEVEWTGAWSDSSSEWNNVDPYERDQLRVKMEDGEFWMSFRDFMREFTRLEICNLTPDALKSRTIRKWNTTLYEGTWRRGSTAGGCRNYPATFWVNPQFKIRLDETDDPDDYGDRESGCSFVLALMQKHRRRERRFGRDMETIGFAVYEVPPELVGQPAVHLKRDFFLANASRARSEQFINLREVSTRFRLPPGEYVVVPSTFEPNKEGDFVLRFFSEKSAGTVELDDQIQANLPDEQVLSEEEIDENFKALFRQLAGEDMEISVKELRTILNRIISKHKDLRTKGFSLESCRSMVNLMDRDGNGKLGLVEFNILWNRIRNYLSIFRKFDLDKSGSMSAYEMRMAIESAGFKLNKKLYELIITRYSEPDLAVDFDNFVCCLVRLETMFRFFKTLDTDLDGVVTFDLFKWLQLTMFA
T1 sequence (P04632 1-268 partner): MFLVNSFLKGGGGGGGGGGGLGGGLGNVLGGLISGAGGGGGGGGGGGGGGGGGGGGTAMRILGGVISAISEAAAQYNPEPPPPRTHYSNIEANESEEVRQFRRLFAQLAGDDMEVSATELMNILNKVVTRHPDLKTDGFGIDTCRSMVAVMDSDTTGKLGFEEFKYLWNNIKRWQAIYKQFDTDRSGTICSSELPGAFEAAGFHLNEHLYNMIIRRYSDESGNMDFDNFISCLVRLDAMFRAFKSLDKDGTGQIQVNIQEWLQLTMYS
Outline: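 Human μ-calpain (0.5 μg) with 250 μM Suc-Leu-Tyr-AMC in 100 mM imidazole pH 7.5, 5 mM cysteine, 5 mM CaCl2. AMC fluorescence (ex 360/em 440 nm) followed 30 min at 30 °C; IC50 determined graphically from initial velocities versus inhibitor concentration.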

IC50 (human μ-calpain): 0.025 µM
Compound: CCNC(=O)C(=O)[C@H](Cc1ccc(Br)cc1)NC(=O)[C@H](CC(C)C)NC(=O)CCCCC1CCSS1 (some centres unmarked) [Example 64]
decrease in the variance coefficient of the muscle fiber size (mdx mouse; Dia (diaphragm)): 29%
reduction of percentage of centralized nuclei (mdx mouse; Dia (diaphragm)): 61%
decrease in the variance coefficient of the muscle fiber size (mdx mouse; TA (tibialis anterior)): 43%
reduction of percentage of centralized nuclei (mdx mouse; TA (tibialis anterior)): 28%
